Here are results for one compound from PMC12498190, “A Photocaged N‐Phosphonopiperidinone as a Selective Photo‐Cleavable DPP8/9 Inhibitor” (Chembiochem, 2025).

Assay [1] concerns the target T1, DPP9 (Homo sapiens, UniProt Q86TI2). Nature of the assay: DPP9 enzyme inhibition assay, AMC release from GP-AMC. Format: biochemical. Details: purchased Proteros Biostructures GmbH, Germany. To be noted: for IC50: read-out: Apparent IC50. An excerpt:
We then continued to investigate the biochemical properties of the photocaged compound 5 versus the photoreleased product resembling inhibitor 1. To this end, we performed biochemical enzyme inhibition assays with DPP8 and DPP9 before and after irradiation of 5. Resulting DPP8/9 inhibition was quantified by following the DPP8‐ or DPP9‐mediated proteolysis of the fluorophore 7‐amino‐4‐methylcoumarin (AMC) from the model substrate Gly‐Pro‐AMC (Figure 1C,D and Table 1 ). To induce photocleavage of 5, reaction mixtures were irradiated for 5 min with the same green LED lamp as before, followed by a pre‐incubation of 45 min with the photoreleased inhibitor prior to substrate addition.
Enzyme activity of human DPP4, DPP8, and DPP9 (Proteros Biostructures GmbH, Germany) was determined by measuring the initial velocity of AMC release from the fluorogenic substrate GP‐AMC (Sigma Aldrich, USA) using a Tecan Spark 10 M multimode microplate reader (Tecan Group Ltd., Switzerland) in activity buffer (20 mM HEPES/KOH pH 7.3, 110 mM potassium acetate, 2 mM magnesium acetate, 0.5 mM EGTA, 0.02% Tween 20, supplemented with 1 mM DTT) and a final volume of 20 μL for maximal 30 min at 30 °C. Prior to the activity measurement, 10 nM of the corresponding enzyme was incubated for 45 min at 30 °C and gentle shaking with the indicated compounds at concentrations ranging from 0 to 100 μM, followed by irradiation with a green LED lamp (λ = 520−530 nm; Eurolite, Germany) for 5 min. The corresponding compounds were dissolved in DMSO and diluted in activity buffer (final DMSO concentration: 1%). To the inhibitor–enzyme mixture, GP‐AMC was then added to a final concentration of 250 μM, and the activity measurement was started. The resulting enzyme activity was calculated from the slope (fluorescence release over time) and plotted against the concentrations of the inhibitor. Apparent IC50 values were calculated using Graph‐Pad Prism v10.4.1 using the equation: [Inhibitor] versus response‐Variable slope (four parameters). All measurements were performed in triplicate, and error bars represent standard errors of the fit.

Assay [2] has as its target T1, DPP9. Nature of the assay: In vitro gel-based competitive ABPP in HEK293 cell lysates, 100 kDa band. Details: endogenous in cells; host or cells: HEK293 (Cytion, Germany, 300192). To be noted: HEK293 lysate, 10 µM competitor, 30 min; for Competition of ≡FP labeling (in words): 2 µM ≡FP. As to the method: Therefore, HEK293 cell lysates were pre‐incubated with 10 µM 5 or DMSO vehicle control for 30 min, followed by a labeling reaction with 2 µM of the serine hydrolase‐specific ABP fluorophosphonate‐alkyne (≡FP) or 10 µM 2 (Figure 2B). […] Of note, this band has been previously assigned as DPP9 (DPP8 would migrate in the same range, but is only expressed at low levels in the used cell line and therefore cannot be visualized by this approach).^[ [36] ^, [37] ^] […] Again, this labeling was observed regardless of prior irradiation. Subsequently, the competitive labeling experiment was conducted by pre‐incubation with compound 5, with or without subsequent irradiation.
Figure 2 Competitive ABPP with photo‐cleavable inhibitor 5 in HEK293 cells. A) Schematic overview of a competitive ABPP experiment. A proteome is pre‐incubated with a competitor, followed by a labeling reaction with an activity‐based probe (ABP). In the case of a photocaged inhibitor, the active compound can be released via irradiation. Target proteins of the competitor cannot be bound by the ABP, resulting in an absence of the respective protein band in‐gel analysis. Created in BioRender. Najdzion, M. (2025) https://BioRender.com/84zn8cb B) Gel‐based competitive ABPP experiment in HEK293 cell lysates with the broadband serine hydrolase ABP ≡FP or the DPP8/9‐directed ABP 2 and the photocaged inhibitor 5, at the indicated concentrations, after or without prior irradiation with green light for 5 min. The corresponding pre‐incubation time for 5 was 30 min. C) Corresponding in situ competitive ABPP experiment in HEK293 cell culture, again with 10 µM 2 for 1 h. Labeling was competed by pre‐incubation with 20 µM 5 for 1 h, followed by an activation of the photocaged inhibitor by irradiation for 5 min with a green LED lamp, if applicable. D) Green light treatment has no cytotoxic effect. HEK293 cells were irradiated with a green LED lamp in the presence of 0.5% DMSO for 5 min (‘light’), and cell viability was measured after 24 h. […] Data was normalized to the non‐irradiated control (‘dark’). E) Green light treatment leads to the release of the active DPP8/9 inhibitor. HEK293 cells were incubated with compound 1 or 5 for 24 h. For both compounds, cell viability was measured under ‘dark’ (not irradiated) and ‘light’ (irradiated for 5 min with a green LED lamp after the addition of the inhibitor) conditions. […] Data was normalized to the non‐irradiated DMSO control.
For in vitro ABPP, cell lysates were generated from HEK293 cells grown on a 10 cm tissue dish. […] The cell lysates were cleared via centrifugation (30 min, 20,817 × g, 4 °C), and protein concentration was determined with a modified Bradford assay using Roti‐Nanoquant (Carl Roth, Germany). […]

By IC50 is commonly meant the concentration that inhibits the measured activity by half.

Like-named read-outs stand apart in the source and are kept apart here.

T1 sequence (Q86TI2 whole entry): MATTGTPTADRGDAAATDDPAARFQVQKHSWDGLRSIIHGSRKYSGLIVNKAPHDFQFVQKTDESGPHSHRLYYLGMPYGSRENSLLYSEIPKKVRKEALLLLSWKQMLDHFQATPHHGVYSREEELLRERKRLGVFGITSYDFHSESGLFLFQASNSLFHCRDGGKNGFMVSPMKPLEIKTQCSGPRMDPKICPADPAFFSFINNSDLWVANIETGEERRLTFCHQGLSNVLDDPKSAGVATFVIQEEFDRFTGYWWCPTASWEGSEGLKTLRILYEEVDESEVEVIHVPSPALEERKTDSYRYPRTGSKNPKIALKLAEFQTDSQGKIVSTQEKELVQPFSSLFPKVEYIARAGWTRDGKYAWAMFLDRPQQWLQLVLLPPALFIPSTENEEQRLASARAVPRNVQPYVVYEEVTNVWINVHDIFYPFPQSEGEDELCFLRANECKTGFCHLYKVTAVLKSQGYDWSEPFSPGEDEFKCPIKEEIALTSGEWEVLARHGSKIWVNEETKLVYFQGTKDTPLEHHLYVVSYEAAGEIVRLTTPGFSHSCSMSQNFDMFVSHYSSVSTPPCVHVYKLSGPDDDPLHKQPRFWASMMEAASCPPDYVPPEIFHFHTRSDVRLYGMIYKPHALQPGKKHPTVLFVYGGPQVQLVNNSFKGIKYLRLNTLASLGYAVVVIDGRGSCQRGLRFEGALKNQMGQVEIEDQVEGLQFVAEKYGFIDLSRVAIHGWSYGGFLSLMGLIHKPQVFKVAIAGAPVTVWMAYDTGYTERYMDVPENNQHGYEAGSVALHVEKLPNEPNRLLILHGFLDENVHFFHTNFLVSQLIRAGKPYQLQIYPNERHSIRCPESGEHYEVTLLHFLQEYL

Turning to `CCCCCc1ccc(SCCP(=O)(OCC)N2CCC[C@H](NC(=O)OCC3=C4C(C)=CC(C)=[N+]4[B-](C)(C)n4c(C)cc(C)c43)C2=O)cc1` (some centres unmarked) [Compound 5], on DPP9 [1], the “Dark/light ratio of apparent IC50” value is 40. In addition, the “Increase in potency after green light-mediated photorelease” value at DPP9 [1] (apparent IC50 dark vs light) is on record as approximately 40 fold. The half-inhibitory concentration (IC50) at DPP9 [1] (dark (without green light irradiation), 45 min pre-incubation) came to 24.7 µM; at DPP9 [1] (light (5 min green LED, 520-530 nm), 45 min pre-incubation), 0.621 ± 0.054 µM; on DPP9 [1] (without irradiation), 24.7 ± 6.8 µM. For the same compound, the “Competition of ≡FP labeling (in words)” value on DPP9 [2] (green light 5 min, 100 kDa band assigned as DPP9) was “labeling competition of one specific band”; on DPP9 [2] (without irradiation) it was “did not result in any competition”. The “Competition of DPP9 labeling by ABP 2 (in words)” value at DPP9 [2] (10 µM 2, green light 5 min) was “efficient DPP9 labeling competition”.
